Laboratory results reported in paper PMC9297976 (Journal of Applied Toxicology, 2021).

Tests used:
[1] = biological target: T1, medaka ARβ (mArβ) (Oryzias latipes, UniProt D1MV73); test: Medaka ARβ reporter gene assay, antagonist assay; type: cell-based, Japanese medaka (Oryzias latipes)
T1 sequence (D1MV73 1-744): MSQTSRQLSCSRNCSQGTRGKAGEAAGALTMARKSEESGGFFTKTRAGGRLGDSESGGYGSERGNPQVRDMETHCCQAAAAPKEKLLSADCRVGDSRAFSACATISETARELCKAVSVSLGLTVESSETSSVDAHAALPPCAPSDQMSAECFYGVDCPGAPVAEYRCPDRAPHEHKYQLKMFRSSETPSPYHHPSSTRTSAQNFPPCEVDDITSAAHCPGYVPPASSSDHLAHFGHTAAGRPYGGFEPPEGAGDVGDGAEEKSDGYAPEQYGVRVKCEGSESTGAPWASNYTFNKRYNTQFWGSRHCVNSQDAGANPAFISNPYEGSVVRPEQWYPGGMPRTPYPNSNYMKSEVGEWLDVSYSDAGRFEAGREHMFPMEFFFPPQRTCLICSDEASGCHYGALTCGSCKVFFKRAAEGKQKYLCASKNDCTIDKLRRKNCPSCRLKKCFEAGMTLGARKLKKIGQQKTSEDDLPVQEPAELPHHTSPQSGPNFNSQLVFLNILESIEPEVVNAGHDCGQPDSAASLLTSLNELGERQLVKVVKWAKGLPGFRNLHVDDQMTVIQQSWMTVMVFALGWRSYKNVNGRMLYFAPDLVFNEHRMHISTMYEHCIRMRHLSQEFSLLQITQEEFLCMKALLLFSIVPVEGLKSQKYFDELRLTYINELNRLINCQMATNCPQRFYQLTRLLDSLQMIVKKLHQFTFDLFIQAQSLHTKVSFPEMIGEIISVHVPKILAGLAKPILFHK

[2] = tested on: Japanese medaka (Oryzias latipes); test: Fish Short‐Term Reproduction Assay; type: in vivo; conditions: for GSI Female / GSI Male / HSI Female / HSI Male / Length Female / Length Male / Weight Female / Weight Male: completion of exposure
[3] = biological target: T2, medaka Esr1 (mEsr1) (Oryzias latipes, UniProt P50241); test: cell-based; design: species or system Japanese medaka (Oryzias latipes)
T2 sequence (P50241 1-620): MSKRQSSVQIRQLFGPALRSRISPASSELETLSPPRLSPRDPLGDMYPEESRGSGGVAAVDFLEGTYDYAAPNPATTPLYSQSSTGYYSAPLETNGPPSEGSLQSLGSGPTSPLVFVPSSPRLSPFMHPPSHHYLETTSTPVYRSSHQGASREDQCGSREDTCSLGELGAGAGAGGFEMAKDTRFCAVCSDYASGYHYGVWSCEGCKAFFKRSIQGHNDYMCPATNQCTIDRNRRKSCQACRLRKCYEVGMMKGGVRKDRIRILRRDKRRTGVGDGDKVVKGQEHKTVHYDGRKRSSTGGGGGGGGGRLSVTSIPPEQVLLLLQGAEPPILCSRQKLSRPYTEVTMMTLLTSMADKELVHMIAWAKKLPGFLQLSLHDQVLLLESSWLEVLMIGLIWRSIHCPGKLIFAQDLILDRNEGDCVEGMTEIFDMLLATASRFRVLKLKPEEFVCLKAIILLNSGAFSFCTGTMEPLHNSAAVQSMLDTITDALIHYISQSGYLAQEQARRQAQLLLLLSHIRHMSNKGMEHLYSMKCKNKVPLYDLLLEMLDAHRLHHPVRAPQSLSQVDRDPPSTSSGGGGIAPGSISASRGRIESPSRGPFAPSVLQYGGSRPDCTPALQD

[4] = biological target: T2, medaka Esr1 (mEsr1); test: Medaka Esr1 reporter gene assay, antagonist assay; type: cell-based, Japanese medaka (Oryzias latipes); conditions: E2 spiked at 1.0 nM (B); MAC = 1.0 × 10^−5 M
[5] = biological target: T1, medaka ARβ (mArβ); test: Medaka ARβ reporter gene assay, agonist assay; type: cell-based, Japanese medaka (Oryzias latipes); conditions: MAC = 1.0 × 10^−5 M
[6] = 4.67 mg/L measured, 21 d, sig. ↑ vs control
[7] = measured concentration 0.155 mg/L
[8] = measured concentration 0.826 mg/L
[9] = measured concentration 4.67 mg/L

For `CC(C)(c1ccc(O)cc1)c1ccc(O)cc1` [BPA, Bisphenol A], the IC50 [1] was 7 µM, the “In vitro positive: aAr” value ([1]; mode of action in which IC50 or IC30 was obtained in RGA) was “aAr” and the “Antagonistic activity on mArβ (in words)” value ([1]; transcriptional activity on mArβ by 11KT) was “inhibitory potency”. For the same molecule, the Fertility rate ([2]; 0.155 mg/L measured, 21 d) was 96 ± 2.1%, the “Hepatic VTG, female” value ([2]; 0.155 mg/L measured, 21 d) was 435 ± 65 ng/mg‐liver and the “Hepatic VTG, male” value ([2]; 0.155 mg/L measured, 21 d) was 0.5 ± 0.0 ng/mg‐liver. The Mortality ([2]; 0.155 mg/L measured, 21 d) was 17%, the “Mortality, number of dead fish” value ([2]; 0.155 mg/L measured, 21 d) was 4 and the “Number of total eggs (per female per day)” value ([2]; 0.155 mg/L measured, 21 d) was 14 ± 1.8. For the same molecule, the “SSC female (joint plates with papillary processes)” value (“SSC female” below) ([2]; 0.155 mg/L measured, 21 d) was 0 ± 0, the “SSC male (joint plates with papillary processes)” value (from here on “SSC male”) ([2]; 0.155 mg/L measured, 21 d) was 74 ± 3.6 and the Fertility rate ([2]; 0.826 mg/L measured, 21 d) was 94 ± 1.9%. For the same molecule, the “Hepatic VTG, female” value ([2]; 0.826 mg/L measured, 21 d) was 768 ± 297 ng/mg‐liver, the “Hepatic VTG, male” value ([2]; 0.826 mg/L measured, 21 d) was 0.5 ± 0.0 ng/mg‐liver and the Mortality ([2]; 0.826 mg/L measured, 21 d) was 8.3%. For the same molecule, the “Mortality, number of dead fish” value ([2]; 0.826 mg/L measured, 21 d) was 2, the “Number of total eggs (per female per day)” value ([2]; 0.826 mg/L measured, 21 d) was 14 ± 1.6 and the “SSC female” value ([2]; 0.826 mg/L measured, 21 d) was 0 ± 0. For the same molecule, the “SSC male” value ([2]; 0.826 mg/L measured, 21 d) was 71 ± 4.2, the “Hepatic VTG, female” value ([2]; 4.67 mg/L measured, 21 d) was 3,456 ng/mg‐liver and the “SSC female” value ([2]; 4.67 mg/L measured, 21 d) was 0 ± 0. The “SSC male” value ([2]; 4.67 mg/L measured, 21 d) was 76 ± 5.7, the “Hepatic VTG, male” value [2, 6] was 2,804 ± 811 ng/mg‐liver and the Mortality [2, 6] was 71%. The “Mortality, number of dead fish” value [2, 6] was 17, the Fertility rate ([2]; 4.67 mg/L measured, 21 d, sig. ↓ vs control) was 59 ± 25% and the “Fecundity, number of total eggs (in words)” value ([2]; 21 d) was “statistically significant decrease”. The “LOEC, elevated hepatic VTG in males” value ([2]; 21 d) was 4.67 mg/L, the LOECREPRO ([2]; LOEC on reproduction (fecundity and/or fertility)) was 4,670 μg/L and the minimal effective concentration ([2]; Oryzias latipes, 504 h, read-out: LOECmVTG) was 4.67 µg/mL. For the same molecule, the “Fertility rate (in words)” value ([2]; at concentrations that did not affect number of total eggs) was “significant decrease”, the LOECTOX ([2]; lowest observed effect concentration on mortality) was 4,670 μg/L and the “GSI Female” value [2, 7] was 6.8 ± 0.5%. The “GSI Male” value [2, 7] was 0.91 ± 0.13%, the “HSI Female” value [2, 7] was 3.4 ± 0.46% and the “HSI Male” value [2, 7] was 2.1 ± 0.40%. For the same molecule, the “Length Female” value [2, 7] was 31.7 ± 0.9 mm, the “Length Male” value [2, 7] was 33.2 ± 0.9 mm and the “Weight Female” value [2, 7] was 313 ± 23 mg. The “Weight Male” value [2, 7] was 290 ± 23 mg, the “GSI Female” value [2, 8] was 6.0 ± 1.0% and the “GSI Male” value [2, 8] was 0.80 ± 0.23%. For the same molecule, the “HSI Female” value [2, 8] was 3.3 ± 0.75%, the “HSI Male” value [2, 8] was 2.3 ± 0.45% and the “Length Female” value [2, 8] was 32.0 ± 0.9 mm. For the same molecule, the “Length Male” value [2, 8] was 32.5 ± 0.9 mm, the “Weight Female” value [2, 8] was 342 ± 20 mg and the “Weight Male” value [2, 8] was 310 ± 10 mg. The “GSI Female” value [2, 9] was 2.3%, the “GSI Male” value [2, 9] was 0.77 ± 0.23% and the “HSI Female” value [2, 9] was 4.8%. For the same molecule, the “HSI Male” value [2, 9] was 3.4 ± 1.15%, the “Length Female” value [2, 9] was 30.6 mm and the “Length Male” value [2, 9] was 33.6 ± 1.9 mm. The “Weight Female” value [2, 9] was 281 mg, the “Weight Male” value [2, 9] was 370 ± 72 mg and the EC50 [3] was 0.086 µM. For the same molecule, the “In vitro positive: Esr” value ([3]; mode of action in which EC50 or PC10 was obtained in RGA) was “Esr”, the Antagonistic activity [4] was “NE (MAC = 1.0 × 10^−5 M)^(B)” and the Agonistic activity [5] was “NE (MAC = 1.0 × 10^−5 M)”.
